From article PMC9962302, “The Mechanism of Metal-Containing Formate Dehydrogenases Revisited: The Formation of Bicarbonate as Product Intermediate Provides Evidence for an Oxygen Atom Transfer Mechanism” (Molecules, 2023)

Key:
[1] = target: T1, R. capsulatus FDH (RcFDH), metal-containing formate dehydrogenase (Rhodobacter capsulatus, UniProt D5AQH0); test: inhibition of the back reaction (CO2 reduction) at […] CS2, […] nm; type: biochemical
T1 construct: gene fdhA

[2] = target: T1, R. capsulatus FDH (RcFDH), metal-containing formate dehydrogenase; test: steady-state inhibition kinetics of formate oxidation, benzyl viologen as electron acceptor, […] nm; type: biochemical
purified protein [3] = substrate: O=CO; test: purified protein; type: biochemical, Rhodobacter capsulatus; conditions: bis-MGD molybdenum cofactor, [4Fe-4S] cluster; NAD+ active site, molybdenum centre
purified protein [4] = substrate: O=CS; test: purified protein; type: biochemical, Rhodobacter capsulatus; conditions: bis-MGD molybdenum cofactor, [4Fe-4S] cluster; NAD+

T1 sequence (D5AQH1 1-500 partner, one chain of several): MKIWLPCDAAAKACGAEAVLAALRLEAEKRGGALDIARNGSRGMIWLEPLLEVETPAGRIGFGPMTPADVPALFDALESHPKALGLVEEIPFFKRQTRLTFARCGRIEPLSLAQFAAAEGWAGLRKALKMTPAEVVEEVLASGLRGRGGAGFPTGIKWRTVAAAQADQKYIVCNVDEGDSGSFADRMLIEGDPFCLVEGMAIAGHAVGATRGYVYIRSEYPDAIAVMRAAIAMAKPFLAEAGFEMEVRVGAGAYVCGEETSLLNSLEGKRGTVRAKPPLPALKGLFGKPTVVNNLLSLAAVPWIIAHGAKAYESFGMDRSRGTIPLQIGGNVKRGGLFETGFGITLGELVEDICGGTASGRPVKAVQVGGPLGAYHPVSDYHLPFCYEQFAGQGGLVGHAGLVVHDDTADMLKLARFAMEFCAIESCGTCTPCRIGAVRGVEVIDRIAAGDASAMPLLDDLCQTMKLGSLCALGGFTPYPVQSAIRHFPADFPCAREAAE
T1 sequence (D5AQH2 1-150 partner, one chain of several): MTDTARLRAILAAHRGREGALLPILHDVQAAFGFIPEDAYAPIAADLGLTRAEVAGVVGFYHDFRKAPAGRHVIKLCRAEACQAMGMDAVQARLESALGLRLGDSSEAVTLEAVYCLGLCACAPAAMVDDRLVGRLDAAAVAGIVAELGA
T1 sequence (D5AQG8 1-71 partner, one chain of several): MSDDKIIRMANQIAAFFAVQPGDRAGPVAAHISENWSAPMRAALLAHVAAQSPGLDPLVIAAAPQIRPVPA

With `S=C=S` [carbon disulfide] the “inhibition of the back reaction (CO2 reduction) at 150 mM CS2, 340 nm” value [1] was “interfere with the active site and/or the hydrophobic channel and, therefore, inhibits the reduction in CO2 when present”.

With `S=CS` [dithioformate] the Ki [2] was 7.5 mM.

B1: R. capsulatus FDH (RcFDH), metal-containing formate dehydrogenase (Rhodobacter capsulatus SB 1003) (protein)
chain: MKDLIIPPLDWTQDMGTPKREGAPVHLTIDGVEVTVPAGTSVLRAAAEAGISIPKLCATDNVEPVGSCRLCMVEIEGMRGTPTSCTTPVAPGMRVHTQTPQLQKLRRGVMELYISDHPLDCLTCAANGDCELQDMAGAVGLREVRYQAKDTHFARRDATGPNPRYIPKDNSNPYFSYDPAKCIVCMRCVRACEEVQGTFALTVMGRGFDARISPAAPDFLSSDCVSCGACVQACPTATLVEKSVERIGTPERKVVTTCAYCGVGCSFEAHMLGDQLVRMVPWKGGAANRGHSCVKGRFAYGYATHQDRILKPMIRDKITDPWREVNWTEALDFTATRLRALRDSHGADALGVITSSRCTNEETYLVQKLARAVFGTNNTDTCARVCHSPTGYGLKQTFGTSAGTQDFDSVEETDLALVIGANPTDGHPVFASRLRKRLRAGAKLIVVDPRRIDLLNTPHRGEAWHLQLKPGTNVAVMTAMAHVIVTEQIFDKRFIGDRCDWDEWADYAEFVANPEYAPEAVESLTGVPAGLLRQAARAYAAAPNAAIYYGLGVTEHSQGSTTVIAIANLAMMTGNIGRPGVGVNPLRGQNNVQGSCDMGSFPHEFPGYRHVSDDATRGLFERTWGVTLSSEPGLRIPNMLDAAVEGRFKALYVQGEDILQSDPDTRHVSAGLAAMDLVIVHDLFLNETANYAHVFLPGSTFLEKDGTFTNAERRINRVRRVMAPKAGFADWEVTQMLANALGAGWHYTHPSEIMAEIAATTPGFAAVTYEMLDARGSVQWPCNEKAPEGSPIMHVEGFVRGKGRFIRTAYLPTDEKTGPRFPLLLTTGRILSQYNVGAQTRRTENTVWHGEDRLEIHPTDAETRGIRDGDWVRLASRAGETTLRATVTDRVSPGVVYTTFHHPDTQANVVTTDTSDWATNCPEYKVTAVQVAASNGPSDWQQDYAAQAAAARRIEAAE
Work on B1 yielded a Km (purified protein [3]) of 0.145 ± 0.025 mM and a Km (purified protein [4]) of 3.3 ± 0.24 mM.
